Data reported in patent publication US20230257396A1, “MACROCYCLES AND THEIR USE” (BLOSSOMHILL THERAPEUTICS, INC., priority 2020, published 2023).

Tests used:
Assay in all cases: KINOMEscan kinase binding assay (Eurofins/DiscoveRx), % Ctrl
kinases [1] = molecular target: T1, kinases (Homo sapiens, UniProt P00519, Q252H)
T1 construct: purchased Eurofins/DiscoveRx; host or cells: E. coli BL21-derived host (T7 phage display) for most kinases; HEK-293 for the rest
Procedure, shortened: (§1)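 Competition binding: DNA- or phage-tagged kinases (T7 phage in E. coli BL21, or HEK-293-expressed) with immobilized biotinylated ligand beads and test compound, 1 h at room temperature. Bead-bound kinase eluted and quantified by qPCR; % Ctrl = (compound − positive control)/(negative control − positive control) ×100 at a single compound concentration.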

kinases [2] = molecular target: T2, kinases (Homo sapiens, UniProt P00533)
T2 construct: purchased Eurofins/DiscoveRx; host or cells: E. coli BL21-derived host (T7 phage display) for most kinases; HEK-293 for the rest
Procedure, shortened: as §1

kinases [3] = molecular target: T3, kinases (Homo sapiens, UniProt P10721)
T3 construct: purchased Eurofins/DiscoveRx; host or cells: E. coli BL21-derived host (T7 phage display) for most kinases; HEK-293 for the rest
Procedure, shortened: as §1

kinases [4] = molecular target: T4, kinases (Homo sapiens, UniProt P35916)
T4 construct: purchased Eurofins/DiscoveRx; host or cells: E. coli BL21-derived host (T7 phage display) for most kinases; HEK-293 for the rest
Procedure, shortened: as §1

kinases [5] = molecular target: T5, kinases (Homo sapiens, UniProt P36888, R834Q)
T5 construct: purchased Eurofins/DiscoveRx; host or cells: E. coli BL21-derived host (T7 phage display) for most kinases; HEK-293 for the rest
T5 sequence (P36888 27-993 R834Q): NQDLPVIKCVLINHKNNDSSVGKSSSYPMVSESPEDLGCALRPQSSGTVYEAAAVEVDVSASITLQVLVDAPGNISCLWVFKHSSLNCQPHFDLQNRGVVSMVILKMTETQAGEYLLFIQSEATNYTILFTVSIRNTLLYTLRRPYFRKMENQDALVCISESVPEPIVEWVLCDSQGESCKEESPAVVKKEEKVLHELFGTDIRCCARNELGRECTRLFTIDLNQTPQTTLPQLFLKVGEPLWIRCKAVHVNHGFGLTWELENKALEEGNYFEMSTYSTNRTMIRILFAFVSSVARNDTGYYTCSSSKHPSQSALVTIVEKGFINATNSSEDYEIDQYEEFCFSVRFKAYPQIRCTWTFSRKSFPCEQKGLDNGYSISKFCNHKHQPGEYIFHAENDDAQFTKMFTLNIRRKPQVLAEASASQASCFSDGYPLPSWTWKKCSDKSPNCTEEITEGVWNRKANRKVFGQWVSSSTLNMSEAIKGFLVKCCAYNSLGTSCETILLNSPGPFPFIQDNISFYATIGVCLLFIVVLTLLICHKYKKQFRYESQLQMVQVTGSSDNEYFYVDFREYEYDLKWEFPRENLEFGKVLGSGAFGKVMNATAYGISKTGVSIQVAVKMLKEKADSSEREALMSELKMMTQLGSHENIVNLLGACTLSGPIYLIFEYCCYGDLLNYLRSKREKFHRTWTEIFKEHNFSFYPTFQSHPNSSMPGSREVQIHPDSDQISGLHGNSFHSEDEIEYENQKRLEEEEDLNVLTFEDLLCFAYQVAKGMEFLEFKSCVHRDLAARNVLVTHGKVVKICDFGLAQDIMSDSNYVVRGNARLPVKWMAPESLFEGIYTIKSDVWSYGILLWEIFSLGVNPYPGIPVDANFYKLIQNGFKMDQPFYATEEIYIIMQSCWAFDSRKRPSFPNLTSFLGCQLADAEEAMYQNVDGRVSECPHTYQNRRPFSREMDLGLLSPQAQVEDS
Procedure, shortened: as §1

kinases [6] = tested on: kinases
Procedure, shortened: as §1

[7] = 1 μM; target ABL1(Q252H)-nonphosphorylated
[8] = 1 μM; target ABL1(Q252H)-phosphorylated
[9] = 1 μM; target EGFR(L747-E749del, A750P)
[10] = 1 μM; target EGFR(L747-S752del, P753S)
[11] = 1 μM; target EGFR(L747-T751del, Sins)
[12] = 1 μM; ABL1(Q252H)-nonphosphorylated
[13] = 1 μM; ABL1(Q252H)-phosphorylated
[14] = 1 μM; EGFR(L747-E749del, A750P)
[15] = 1 μM; EGFR(L747-S752del, P753S)

T4 sequence (P35916 25-1363): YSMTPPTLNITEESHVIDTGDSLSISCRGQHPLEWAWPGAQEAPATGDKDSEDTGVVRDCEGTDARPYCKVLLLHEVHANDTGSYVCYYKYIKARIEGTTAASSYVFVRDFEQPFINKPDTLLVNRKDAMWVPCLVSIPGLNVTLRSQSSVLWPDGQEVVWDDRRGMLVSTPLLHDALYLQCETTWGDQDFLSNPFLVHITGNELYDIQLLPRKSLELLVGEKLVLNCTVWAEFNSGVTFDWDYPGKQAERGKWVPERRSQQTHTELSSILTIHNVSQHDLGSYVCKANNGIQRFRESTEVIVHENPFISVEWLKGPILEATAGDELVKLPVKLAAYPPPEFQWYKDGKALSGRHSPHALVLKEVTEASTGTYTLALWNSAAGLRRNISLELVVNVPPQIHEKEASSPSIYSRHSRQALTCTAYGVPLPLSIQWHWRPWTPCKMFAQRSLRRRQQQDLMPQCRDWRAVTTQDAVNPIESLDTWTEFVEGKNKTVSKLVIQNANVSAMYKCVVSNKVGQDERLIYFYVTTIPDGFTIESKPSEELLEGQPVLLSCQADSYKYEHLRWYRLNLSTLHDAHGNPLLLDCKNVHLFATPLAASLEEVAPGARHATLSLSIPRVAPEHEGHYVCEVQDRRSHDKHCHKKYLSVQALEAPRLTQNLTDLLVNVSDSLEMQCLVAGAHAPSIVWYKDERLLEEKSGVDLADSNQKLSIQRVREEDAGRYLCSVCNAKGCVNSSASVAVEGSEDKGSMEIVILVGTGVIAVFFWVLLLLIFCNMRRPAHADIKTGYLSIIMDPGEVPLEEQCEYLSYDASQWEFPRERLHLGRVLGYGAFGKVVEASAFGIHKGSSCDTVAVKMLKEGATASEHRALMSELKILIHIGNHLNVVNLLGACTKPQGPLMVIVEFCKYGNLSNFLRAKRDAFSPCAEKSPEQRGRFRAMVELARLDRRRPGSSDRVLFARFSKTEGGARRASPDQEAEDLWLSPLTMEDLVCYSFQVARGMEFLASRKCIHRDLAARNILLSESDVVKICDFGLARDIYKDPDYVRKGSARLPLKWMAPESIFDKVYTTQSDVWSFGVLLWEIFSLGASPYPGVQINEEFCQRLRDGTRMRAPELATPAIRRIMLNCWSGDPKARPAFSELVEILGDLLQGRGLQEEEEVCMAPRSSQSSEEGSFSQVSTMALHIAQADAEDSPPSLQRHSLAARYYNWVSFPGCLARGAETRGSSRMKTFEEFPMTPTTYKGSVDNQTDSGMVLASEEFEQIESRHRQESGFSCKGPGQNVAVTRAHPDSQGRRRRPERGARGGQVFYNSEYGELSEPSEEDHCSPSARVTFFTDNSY
T3 sequence (P10721 26-976): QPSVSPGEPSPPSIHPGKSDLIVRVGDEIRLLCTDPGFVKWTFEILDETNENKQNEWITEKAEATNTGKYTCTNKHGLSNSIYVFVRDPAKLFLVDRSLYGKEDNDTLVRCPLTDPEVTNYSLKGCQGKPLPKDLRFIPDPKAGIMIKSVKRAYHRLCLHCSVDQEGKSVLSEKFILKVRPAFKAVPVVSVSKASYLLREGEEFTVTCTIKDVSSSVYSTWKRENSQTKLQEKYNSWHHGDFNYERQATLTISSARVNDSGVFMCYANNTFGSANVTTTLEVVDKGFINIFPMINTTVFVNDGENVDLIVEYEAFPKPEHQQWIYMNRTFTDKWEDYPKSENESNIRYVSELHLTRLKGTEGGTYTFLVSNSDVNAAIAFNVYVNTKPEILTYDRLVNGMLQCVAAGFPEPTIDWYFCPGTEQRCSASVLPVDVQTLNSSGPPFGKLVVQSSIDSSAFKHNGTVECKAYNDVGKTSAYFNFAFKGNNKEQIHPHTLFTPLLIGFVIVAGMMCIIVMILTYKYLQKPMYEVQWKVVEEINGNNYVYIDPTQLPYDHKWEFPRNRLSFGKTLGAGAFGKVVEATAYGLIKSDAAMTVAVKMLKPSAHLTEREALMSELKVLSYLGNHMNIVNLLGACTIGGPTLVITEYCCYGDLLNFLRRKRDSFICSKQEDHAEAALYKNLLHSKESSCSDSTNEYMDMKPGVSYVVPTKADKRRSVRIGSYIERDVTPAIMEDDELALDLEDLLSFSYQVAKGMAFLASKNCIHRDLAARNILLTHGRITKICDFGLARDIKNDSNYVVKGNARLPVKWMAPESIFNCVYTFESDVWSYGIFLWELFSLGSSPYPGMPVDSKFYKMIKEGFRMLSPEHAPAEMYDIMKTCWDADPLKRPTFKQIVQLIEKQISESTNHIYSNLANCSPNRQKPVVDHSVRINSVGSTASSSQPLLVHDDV
T2 sequence (P00533 25-1210): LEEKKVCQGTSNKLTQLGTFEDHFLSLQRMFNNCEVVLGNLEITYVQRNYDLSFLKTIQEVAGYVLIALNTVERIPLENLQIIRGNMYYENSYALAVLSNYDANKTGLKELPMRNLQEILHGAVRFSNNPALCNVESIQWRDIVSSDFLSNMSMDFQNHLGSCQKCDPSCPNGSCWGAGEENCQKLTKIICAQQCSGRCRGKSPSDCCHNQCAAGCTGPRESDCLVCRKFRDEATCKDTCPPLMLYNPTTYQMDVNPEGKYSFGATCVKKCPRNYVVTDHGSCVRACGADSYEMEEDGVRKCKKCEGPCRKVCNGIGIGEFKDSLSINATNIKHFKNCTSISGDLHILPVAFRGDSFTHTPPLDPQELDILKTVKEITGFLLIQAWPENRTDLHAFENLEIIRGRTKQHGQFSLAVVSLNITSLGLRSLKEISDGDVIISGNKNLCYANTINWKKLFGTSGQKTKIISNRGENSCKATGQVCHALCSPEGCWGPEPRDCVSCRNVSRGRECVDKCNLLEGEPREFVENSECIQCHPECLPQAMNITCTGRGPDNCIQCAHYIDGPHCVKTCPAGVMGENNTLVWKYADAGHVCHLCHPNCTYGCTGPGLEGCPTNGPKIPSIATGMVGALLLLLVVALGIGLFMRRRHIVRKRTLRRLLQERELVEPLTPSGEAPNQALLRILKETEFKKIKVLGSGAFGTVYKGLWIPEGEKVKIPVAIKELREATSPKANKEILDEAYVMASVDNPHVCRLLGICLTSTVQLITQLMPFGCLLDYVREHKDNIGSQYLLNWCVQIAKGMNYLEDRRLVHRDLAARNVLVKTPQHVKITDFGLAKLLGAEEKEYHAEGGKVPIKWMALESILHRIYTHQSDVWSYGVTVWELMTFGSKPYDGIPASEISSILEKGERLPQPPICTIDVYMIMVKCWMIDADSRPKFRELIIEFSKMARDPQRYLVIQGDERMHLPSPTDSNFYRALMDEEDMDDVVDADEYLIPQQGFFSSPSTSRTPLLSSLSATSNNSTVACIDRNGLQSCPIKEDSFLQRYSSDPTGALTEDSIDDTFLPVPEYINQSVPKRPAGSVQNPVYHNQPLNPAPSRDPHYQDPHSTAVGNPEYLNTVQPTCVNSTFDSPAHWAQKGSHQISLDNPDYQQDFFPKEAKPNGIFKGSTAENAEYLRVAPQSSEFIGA

Structure (SMILES) | % Ctrl, ABL1(Q252H)-nonphosphorylated (kinases [1]; [7]) | % Ctrl, ABL1(Q252H)-phosphorylated (kinases [1]; [8]) | % Ctrl, EGFR (kinases [2]; 1 μM; target EGFR) | % Ctrl, KIT (kinases [3]; 1 μM; target KIT) | % Ctrl, KIT-autoinhibited (kinases [3]; 1 μM; target KIT-autoinhibited) | % Ctrl, FLT4 (kinases [4]; 1 μM; target FLT4) | % Ctrl, FLT3(R834Q) (kinases [5]; 1 μM; target FLT3(R834Q)) | % Ctrl, EGFR(L747-E749del, A750P) (kinases [6]; [9]) | % Ctrl, EGFR(L747-S752del, P753S) (kinases [6]; [10]) | % Ctrl, EGFR(L747-T751del, Sins) (kinases [6]; [11]) | % Ctrl, FLT3(ITD) (kinases [6]; 1 μM; target FLT3(ITD)) | % Ctrl, FLT3(ITD, D835V) (kinases [6]; 1 μM; target FLT3(ITD, D835V)) | % Ctrl, FLT3(ITD, F691L) (kinases [6]; 1 μM; target FLT3(ITD, F691L)) | % Ctrl, ABL1(Q252H)-nonphosphorylated (kinases [1]; [12]) | % Ctrl, ABL1(Q252H)-phosphorylated (kinases [1]; [13]) | % Ctrl, EGFR (kinases [2]; 1 μM; EGFR) | % Ctrl, KIT (kinases [3]; 1 μM; KIT) | % Ctrl, KIT-autoinhibited (kinases [3]; 1 μM; KIT-autoinhibited) | % Ctrl, FLT4 (kinases [4]; 1 μM; FLT4) | % Ctrl, FLT3(R834Q) (kinases [5]; 1 μM; FLT3(R834Q)) | further results
Cc1cc2c([nH]1)/C=C1\C(=O)Nc3cc(Cl)c(cc31)SCCOCCN(C)C2=O [Ex. 169, [16a(17)Z]-19-chloro-5-methyl-6,7,9,10-tetrahydro-1H-12,14-(ethanediylidene)dipyrrolo[3,4-g:2′,3′-j][1,4,13]oxathiazacyclopentadecine-4,16(5H,15H)-dione] | 0 % Ctrl | 0.3 % Ctrl | 42 % Ctrl | 7.5 % Ctrl | 25 % Ctrl | 0.1 % Ctrl | 5.9 % Ctrl | 44 % Ctrl | 56 % Ctrl | 30 % Ctrl | 0.9 % Ctrl | 0.4 % Ctrl | 0.1 % Ctrl |  |  |  |  |  |  |  | 
Cc1cc2c([nH]1)/C=C1\C(=O)Nc3cc(Cl)c(cc31)OCCO[C@@H](C(=O)NC1CCNCC1)CN(C)C2=O [Ex. 134, [7R,16a(17)Z]-19-chloro-2,5-dimethyl-4,16-dioxo-N-(piperidin-4-yl)-4,5,6,7,9,10,15,16-octahydro-1H-12,14-(ethaneidylidene)dipyrrolo[3,2-i:3′,4′-l][1,4,7]dioxazacyclopentadecine-7-carboxamide] |  |  |  |  |  |  |  |  |  |  |  |  |  | 32 % Ctrl | 18 % Ctrl | 96 % Ctrl | 60 % Ctrl | 94 % Ctrl | 90 % Ctrl | 59 % Ctrl | % Ctrl, EGFR(L747-E749del, A750P) (kinases [6]; [14]): 83 % Ctrl; % Ctrl, EGFR(L747-S752del, P753S) (kinases [6]; [15]): 87 % Ctrl; % Ctrl, EGFR(L747-T751del, Sins) (kinases [6]; 1 μM; EGFR(L747-T751del, Sins)): 99 % Ctrl; % Ctrl, FLT3(ITD) (kinases [6]; 1 μM; FLT3(ITD)): 35 % Ctrl; % Ctrl, FLT3(ITD, D835V) (kinases [6]; 1 μM; FLT3(ITD, D835V)): 3.2 % Ctrl; % Ctrl, FLT3(ITD, F691L) (kinases [6]; 1 μM; FLT3(ITD, F691L)): 6.1 % Ctrl
Cc1cc2c([nH]1)/C=C1\C(=O)Nc3cc(Cl)c(cc31)OCCO[C@@H](C(=O)NC1CNC1)CN(C)C2=O [Ex. 133, [7R,16a(17)Z]-N-(azetidin-3-yl)-19-chloro-2,5-dimethyl-4,16-dioxo-4,5,6,7,9,10,15,16-octahydro-1H-12,14-(ethanediylidene)dipyrrolo[3,2-i:3′,4′-l][1,4,7]dioxazacyclopentadecine-7-carboxamide] |  |  |  |  |  |  |  |  |  |  |  |  |  | 61 % Ctrl | 49 % Ctrl | 99 % Ctrl | 65 % Ctrl | 75 % Ctrl | 98 % Ctrl | 49 % Ctrl | % Ctrl, EGFR(L747-E749del, A750P) (kinases [6]; [14]): 100 % Ctrl; % Ctrl, EGFR(L747-S752del, P753S) (kinases [6]; [15]): 100 % Ctrl; % Ctrl, EGFR(L747-T751del, Sins) (kinases [6]; 1 μM; EGFR(L747-T751del, Sins)): 100 % Ctrl; % Ctrl, FLT3(ITD) (kinases [6]; 1 μM; FLT3(ITD)): 26 % Ctrl; % Ctrl, FLT3(ITD, D835V) (kinases [6]; 1 μM; FLT3(ITD, D835V)): 2.8 % Ctrl; % Ctrl, FLT3(ITD, F691L) (kinases [6]; 1 μM; FLT3(ITD, F691L)): 5.6 % Ctrl
Cc1cc2c([nH]1)/C=C1\C(=O)Nc3ccc(cc31)-c1cnn(C)c1OCCCN(C)C2=O [Ex. 166, [3a(4)Z]-9,14-dimethyl-9,10,11,12-tetrahydro-14H-1,17-(ethanediylidene)pyrazolo[4,3-n]dipyrrolo[3,2-g:3′,4′-j][1,5]oxazacyclopentadecine-3,8(2H,5H)-dione] | 2.6 % Ctrl | 3.8 % Ctrl | 70 % Ctrl | 100 % Ctrl | 87 % Ctrl | 49 % Ctrl | 2.1 % Ctrl | 62 % Ctrl | 98 % Ctrl | 90 % Ctrl | 0.3 % Ctrl | 0.6 % Ctrl | 0 % Ctrl |  |  |  |  |  |  |  | 
Cc1cc2c([nH]1)/C=C1\C(=O)Nc3ccc(cc31)-c1c(C)nn(C)c1COCCN(C)C2=O [Ex. 146, [3a(4)Z]-6,9,14,16-tetramethyl-10,11,13,14-tetrahydro-2H-1,17-(ethanediylidene)pyrazolo[4,3-m]dipyrrolo[3,2-f:3′,4′-i][1,4]oxazacyclopentadecine-3,8(5H,9H)-dione] |  |  |  |  |  |  |  |  |  |  |  |  |  |  |  |  |  |  |  |  | % Ctrl, ABL1(Q252H)-nonphosphorylated (kinases [1]; target ABL1(Q252H)-nonphosphorylated; 1 μM): 74 % Ctrl; % Ctrl, ABL1(Q252H)-phosphorylated (kinases [1]; target ABL1(Q252H)-phosphorylated; 1 μM): 93 % Ctrl; % Ctrl, EGFR (kinases [2]; target EGFR; 1 μM): 51 % Ctrl; % Ctrl, KIT-autoinhibited (kinases [3]; target KIT-autoinhibited; 1 μM): 80 % Ctrl; % Ctrl, KIT (kinases [3]; target KIT; 1 μM): 96 % Ctrl; % Ctrl, FLT4 (kinases [4]; target FLT4; 1 μM): 78 % Ctrl; % Ctrl, FLT3(R834Q) (kinases [5]; target FLT3(R834Q); 1 μM): 97 % Ctrl; % Ctrl, EGFR(L747-E749del, A750P) (kinases [6]; target EGFR(L747-E749del, A750P); 1 μM): 38 % Ctrl; % Ctrl, EGFR(L747-S752del, P753S) (kinases [6]; target EGFR(L747-S752del, P753S); 1 μM): 60 % Ctrl; % Ctrl, EGFR(L747-T751del, Sins) (kinases [6]; target EGFR(L747-T751del, Sins); 1 μM): 77 % Ctrl; % Ctrl, FLT3(ITD) (kinases [6]; target FLT3(ITD); 1 μM): 4.7 % Ctrl; % Ctrl, FLT3(ITD, D835V) (kinases [6]; target FLT3(ITD, D835V); 1 μM): 0.3 % Ctrl; % Ctrl, FLT3(ITD, F691L) (kinases [6]; target FLT3(ITD, F691L); 1 μM): 3.2 % Ctrl
